Experiments:
barnyard grass [1] = assay: Test Example 5: herbicidal effect by foliage application, plastic box (Table 20, symbol H); format: in vivo, barnyard grass (Echinochloa crus-galli); conditions: foliage application, AAH 320 g/ha, three weeks after application
Summary of the method: (§1)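 Foliar spray test: emulsion formulation diluted in water to a set application rate, sprayed onto 14-day-old plants raised in diluvial soil at 25° C to 30° C under glass. Both herbicidal effect and crop effect rated visually three weeks later.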

green foxtail [2] = assay: Test Example 5: herbicidal effect by foliage application, plastic box (Table 20, symbol G); format: in vivo, green foxtail (Setaria viridis); conditions: foliage application, AAH 320 g/ha, three weeks after application
Summary of the method: as §1

wild oat [3] = assay: Test Example 5: herbicidal effect by foliage application, plastic box (Table 20, symbol I); format: in vivo, wild oat (Avena fatua); conditions: foliage application, AAH 320 g/ha, three weeks after application
Summary of the method: as §1

redroot pigweed [4] = assay: Test Example 5: herbicidal effect by foliage application, plastic box (Table 20, symbol N); format: in vivo, redroot pigweed (Amaranthus retroflexus); conditions: foliage application, AAH 320 g/ha, three weeks after application
Summary of the method: as §1

windgrass [5] = assay: Test Example 5: herbicidal effect by foliage application, plastic box (Table 20, symbol L); format: in vivo, windgrass (Apera spica-venti); conditions: foliage application, AAH 320 g/ha, three weeks after application
Summary of the method: as §1

rice flat sedge = assay: Test Example 3: herbicidal effect by foliage application, Wagner pot (Table 18, symbol E); format: in vivo, rice flat sedge (Cyperus iria); conditions: 320 g/ha
Summary of the method: (§2)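 Plants were sown in alluvial soil held under 0.1–0.5 cm standing water and grown 14 days in a greenhouse at 25–30 °C. An emulsifiable formulation, water-diluted to the set dose, was then sprayed onto the foliage, and effects were scored three weeks later using previously defined criteria.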

barnyard grass [6] = assay: Test Example 3: herbicidal effect by foliage application, Wagner pot (Table 18, symbol H); format: in vivo, barnyard grass (Echinochloa crus-galli); conditions: 320 g/ha
Summary of the method: as §2

wild oat [7] = assay: Test Example 4: herbicidal effect by soil treatment (Table 19, symbol I); format: in vivo, wild oat (Avena fatua); conditions: AAH 320 g/ha
Summary of the method: (§3)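 Step 1: sow seeds in sterilized diluvial soil, cover ~1.5 cm. Step 2: spray diluted emulsion onto soil surface at predetermined rate. Step 3: greenhouse, 25–30° C, three weeks. Step 4: grade effect on each plant by earlier criteria.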

velvetleaf [8] = assay: Test Example 4: herbicidal effect by soil treatment (Table 19, symbol M); format: in vivo, velvetleaf (Abutilon theophrasti); conditions: AAH 320 g/ha
Summary of the method: as §3

lambsquarters [9] = assay: Test Example 4: herbicidal effect by soil treatment (Table 19, symbol O); format: in vivo, lambsquarters (Chenopodium album); conditions: AAH 320 g/ha
Summary of the method: as §3

lambsquarters [10] = assay: Test Example 5: herbicidal effect by foliage application, plastic box (Table 20, symbol O); format: in vivo, lambsquarters (Chenopodium album); conditions: foliage application, AAH 320 g/ha, three weeks after application
Summary of the method: as §1

chickweed [11] = assay: Test Example 5: herbicidal effect by foliage application, plastic box (Table 20, symbol P); format: in vivo, common chickweed (Stellaria media); conditions: foliage application, AAH 320 g/ha, three weeks after application
Summary of the method: as §1

green foxtail [12] = assay: Test Example 4: herbicidal effect by soil treatment (Table 19, symbol G); format: in vivo, green foxtail (Setaria viridis); conditions: AAH 320 g/ha
Summary of the method: as §3

persian speedwell [13] = assay: Test Example 4: herbicidal effect by soil treatment (Table 19, symbol R); format: in vivo, Persian speedwell (Veronica persica); conditions: AAH 320 g/ha
Summary of the method: as §3

velvetleaf [14] = assay: Test Example 5: herbicidal effect by foliage application, plastic box (Table 20, symbol M); format: in vivo, velvetleaf (Abutilon theophrasti); conditions: foliage application, AAH 320 g/ha, three weeks after application
Summary of the method: as §1

redroot pigweed [15] = assay: Test Example 4: herbicidal effect by soil treatment (Table 19, symbol N); format: in vivo, redroot pigweed (Amaranthus retroflexus); conditions: AAH 320 g/ha
Summary of the method: as §3

Chinese sprangletop = assay: Test Example 3: herbicidal effect by foliage application, Wagner pot (Table 18, symbol D); format: in vivo, chinese sprangletop (Leptochloa chinensis); conditions: 320 g/ha
Summary of the method: as §2

blackgrass [16] = assay: Test Example 5: herbicidal effect by foliage application, plastic box (Table 20, symbol J); format: in vivo, blackgrass (Alopecurus myosuroides); conditions: foliage application, AAH 320 g/ha, three weeks after application
Summary of the method: as §1

Italian ryegrass [17] = assay: Test Example 4: herbicidal effect by soil treatment (Table 19, symbol K); format: in vivo, Italian ryegrass (Lolium multiflorum); conditions: AAH 320 g/ha
Summary of the method: as §3

southern crabgrass [18] = assay: Test Example 4: herbicidal effect by soil treatment (Table 19, symbol F); format: in vivo, southern crabgrass (Digitaria ciliaris); conditions: AAH 320 g/ha
Summary of the method: as §3

windgrass [19] = assay: Test Example 4: herbicidal effect by soil treatment (Table 19, symbol L); format: in vivo, windgrass (Apera spica-venti); conditions: AAH 320 g/ha
Summary of the method: as §3

blackgrass [20] = assay: Test Example 4: herbicidal effect by soil treatment (Table 19, symbol J); format: in vivo, blackgrass (Alopecurus myosuroides); conditions: AAH 320 g/ha
Summary of the method: as §3

chickweed [21] = assay: Test Example 4: herbicidal effect by soil treatment (Table 19, symbol P); format: in vivo, common chickweed (Stellaria media); conditions: AAH 320 g/ha
Summary of the method: as §3

southern crabgrass [22] = assay: Test Example 5: herbicidal effect by foliage application, plastic box (Table 20, symbol F); format: in vivo, southern crabgrass (Digitaria ciliaris); conditions: foliage application, AAH 320 g/ha, three weeks after application
Summary of the method: as §1

Italian ryegrass [23] = assay: Test Example 5: herbicidal effect by foliage application, plastic box (Table 20, symbol K); format: in vivo, Italian ryegrass (Lolium multiflorum); conditions: foliage application, AAH 320 g/ha, three weeks after application
Summary of the method: as §1

persian speedwell [24] = assay: Test Example 5: herbicidal effect by foliage application, plastic box (Table 20, symbol R); format: in vivo, Persian speedwell (Veronica persica); conditions: foliage application, AAH 320 g/ha, three weeks after application
Summary of the method: as §1

barnyard grass [25] = assay: Test Example 4: herbicidal effect by soil treatment (Table 19, symbol H); format: in vivo, barnyard grass (Echinochloa crus-galli); conditions: AAH 320 g/ha
Summary of the method: as §3

Row | SMILES | H: barnyard grass, herbicidal effect (barnyard grass [1]) | G: green foxtail, herbicidal effect (green foxtail [2]) | I: wild oat, herbicidal effect (wild oat [3]) | N: redroot pigweed, herbicidal effect (redroot pigweed [4]) | L: windgrass, herbicidal effect (windgrass [5]) | herbicidal effect on E (rice flat sedge), rating 0-5 (rice flat sedge) | herbicidal effect on H (barnyard grass), rating 0-5 (barnyard grass [6]) | I: wild oat, herbicidal effect rating (wild oat [7]) | M: velvetleaf, herbicidal effect rating (velvetleaf [8]) | O: lambsquarters, herbicidal effect rating (lambsquarters [9]) | O: lambsquarters, herbicidal effect (lambsquarters [10]) | P: chickweed, herbicidal effect (chickweed [11]) | G: green foxtail, herbicidal effect rating (green foxtail [12]) | R: persian speedwell, herbicidal effect rating (persian speedwell [13]) | M: velvetleaf, herbicidal effect (velvetleaf [14]) | N: redroot pigweed, herbicidal effect rating (redroot pigweed [15]) | herbicidal effect on D (Chinese sprangletop), rating 0-5 (Chinese sprangletop) | J: blackgrass, herbicidal effect (blackgrass [16]) | K: Italian ryegrass, herbicidal effect rating (Italian ryegrass [17]) | F: southern crabgrass, herbicidal effect rating (southern crabgrass [18]) | further results
1 | CCCC(=O)Oc1c(OC)nn(C)c(=O)c1-c1c(-c2ccc(C#N)cc2)sc2ccccc12 [1-171] | 0 (Herbicidal rate of 5% or less (almost no effect)) | 0 (Herbicidal rate of 5% or less (almost no effect)) | 0 (Herbicidal rate of 5% or less (almost no effect)) | 5 (Herbicidal rate of 90% or more (almost completely withered)) | 0 (Herbicidal rate of 5% or less (almost no effect)) | 4 (Herbicidal rate of 70% or more and less than 90%) | 3 (Herbicidal rate of 40% or more and less than 70%) | 0 (Herbicidal rate of 5% or less (almost no effect)) | 0 (Herbicidal rate of 5% or less (almost no effect)) | 3 (Herbicidal rate of 40% or more and less than 70%) | 4 (Herbicidal rate of 70% or more and less than 90%) | 5 (Herbicidal rate of 90% or more (almost completely withered)) | 0 (Herbicidal rate of 5% or less (almost no effect)) | 4 (Herbicidal rate of 70% or more and less than 90%) | 4 (Herbicidal rate of 70% or more and less than 90%) | 5 (Herbicidal rate of 90% or more (almost completely withered)) | 0 (Herbicidal rate of 5% or less (almost no effect)) | 0 (Herbicidal rate of 5% or less (almost no effect)) | 0 (Herbicidal rate of 5% or less (almost no effect)) | 5 (Herbicidal rate of 90% or more (almost completely withered)) | L: windgrass, herbicidal effect rating (windgrass [19]): 0 (Herbicidal rate of 5% or less (almost no effect)); J: blackgrass, herbicidal effect rating (blackgrass [20]): 0 (Herbicidal rate of 5% or less (almost no effect)); P: chickweed, herbicidal effect rating (chickweed [21]): 5 (Herbicidal rate of 90% or more (almost completely withered)); F: southern crabgrass, herbicidal effect (southern crabgrass [22]): 0 (Herbicidal rate of 5% or less (almost no effect)); K: Italian ryegrass, herbicidal effect (Italian ryegrass [23]): 0 (Herbicidal rate of 5% or less (almost no effect)); R: persian speedwell, herbicidal effect (persian speedwell [24]): 4 (Herbicidal rate of 70% or more and less than 90%); H: barnyard grass, herbicidal effect rating (barnyard grass [25]): 0 (Herbicidal rate of 5% or less (almost no effect))
2 | COc1cc(F)ccc1-c1sc2ccccc2c1-c1c(O)c(OC)nn(C)c1=O [1-176] | 5 (Herbicidal rate of 90% or more (almost completely withered)) | 5 (Herbicidal rate of 90% or more (almost completely withered)) | 4 (Herbicidal rate of 70% or more and less than 90%) | 5 (Herbicidal rate of 90% or more (almost completely withered)) | 5 (Herbicidal rate of 90% or more (almost completely withered)) | 5 (Herbicidal rate of 90% or more (almost completely withered)) | 4 (Herbicidal rate of 70% or more and less than 90%) | 3 (Herbicidal rate of 40% or more and less than 70%) | 1 (Herbicidal rate of 5% or more and less than 20%) | 4 (Herbicidal rate of 70% or more and less than 90%) | 5 (Herbicidal rate of 90% or more (almost completely withered)) | 5 (Herbicidal rate of 90% or more (almost completely withered)) | 5 (Herbicidal rate of 90% or more (almost completely withered)) | 5 (Herbicidal rate of 90% or more (almost completely withered)) | 5 (Herbicidal rate of 90% or more (almost completely withered)) | 5 (Herbicidal rate of 90% or more (almost completely withered)) | 3 (Herbicidal rate of 40% or more and less than 70%) | 4 (Herbicidal rate of 70% or more and less than 90%) | 1 (Herbicidal rate of 5% or more and less than 20%) | 4 (Herbicidal rate of 70% or more and less than 90%) | L: windgrass, herbicidal effect rating (windgrass [19]): 5 (Herbicidal rate of 90% or more (almost completely withered)); J: blackgrass, herbicidal effect rating (blackgrass [20]): 5 (Herbicidal rate of 90% or more (almost completely withered)); P: chickweed, herbicidal effect rating (chickweed [21]): 5 (Herbicidal rate of 90% or more (almost completely withered)); F: southern crabgrass, herbicidal effect (southern crabgrass [22]): 4 (Herbicidal rate of 70% or more and less than 90%); K: Italian ryegrass, herbicidal effect (Italian ryegrass [23]): 3 (Herbicidal rate of 40% or more and less than 70%); R: persian speedwell, herbicidal effect (persian speedwell [24]): 5 (Herbicidal rate of 90% or more (almost completely withered)); H: barnyard grass, herbicidal effect rating (barnyard grass [25]): 5 (Herbicidal rate of 90% or more (almost completely withered))
3 | CCCC(=O)Oc1c(OC)nn(C)c(=O)c1-c1c(-c2ccc(F)cc2OC)sc2ccccc12 [1-177] | 4 (Herbicidal rate of 70% or more and less than 90%) | 5 (Herbicidal rate of 90% or more (almost completely withered)) | 3 (Herbicidal rate of 40% or more and less than 70%) | 5 (Herbicidal rate of 90% or more (almost completely withered)) | 4 (Herbicidal rate of 70% or more and less than 90%) | 4 (Herbicidal rate of 70% or more and less than 90%) | 4 (Herbicidal rate of 70% or more and less than 90%) | 3 (Herbicidal rate of 40% or more and less than 70%) | 0 (Herbicidal rate of 5% or less (almost no effect)) | 2 (Herbicidal rate of 20% or more and less than 40%) | 4 (Herbicidal rate of 70% or more and less than 90%) | 5 (Herbicidal rate of 90% or more (almost completely withered)) | 5 (Herbicidal rate of 90% or more (almost completely withered)) | 4 (Herbicidal rate of 70% or more and less than 90%) | 4 (Herbicidal rate of 70% or more and less than 90%) | 5 (Herbicidal rate of 90% or more (almost completely withered)) | 0 (Herbicidal rate of 5% or less (almost no effect)) | 4 (Herbicidal rate of 70% or more and less than 90%) | 0 (Herbicidal rate of 5% or less (almost no effect)) | 3 (Herbicidal rate of 40% or more and less than 70%) | L: windgrass, herbicidal effect rating (windgrass [19]): 0 (Herbicidal rate of 5% or less (almost no effect)); J: blackgrass, herbicidal effect rating (blackgrass [20]): 0 (Herbicidal rate of 5% or less (almost no effect)); P: chickweed, herbicidal effect rating (chickweed [21]): 5 (Herbicidal rate of 90% or more (almost completely withered)); F: southern crabgrass, herbicidal effect (southern crabgrass [22]): 3 (Herbicidal rate of 40% or more and less than 70%); K: Italian ryegrass, herbicidal effect (Italian ryegrass [23]): 1 (Herbicidal rate of 5% or more and less than 20%); R: persian speedwell, herbicidal effect (persian speedwell [24]): 4 (Herbicidal rate of 70% or more and less than 90%); H: barnyard grass, herbicidal effect rating (barnyard grass [25]): 3 (Herbicidal rate of 40% or more and less than 70%)
